One may read the GI50 as the concentration giving 50% growth inhibition.

Bounds are passed on as bounds.

Common to all, as to assay type: functional
Assay [1] can be described thus: Antiproliferative activity against human UACC61 cells assessed as growth inhibition after 48 hrs by sulforhodamine B assay. For orientation: The SRB assay estimates cell density from bound dye.
The next assay deals with MCF7. As to the kind of experiment: Antiproliferative activity against human MCF7 cells assessed as growth inhibition after 48 hrs by sulforhodamine B assay. As to conditions: MCF7, 48 h.
A further assay has as its system NCI/ADR-RES. As to the kind of experiment: Antiproliferative activity against human NCI-ADR-RES cells assessed as growth inhibition after 48 hrs by sulforhodamine B assay.
The next assay relates to 786-0. As to the kind of experiment: Antiproliferative activity against human 786-0 cells assessed as growth inhibition after 48 hrs by sulforhodamine B assay. As to conditions: 786-0, 48 h.
For the next assay, the system named is NCI-H460. Put plainly: Antiproliferative activity against human NCI-H460 cells assessed as growth inhibition after 48 hrs by sulforhodamine B assay. As to conditions: NCI-H460, 48 h.
The next assay relates to PC-3. Put plainly: Antiproliferative activity against human PC3 cells assessed as growth inhibition after 48 hrs by sulforhodamine B assay. As to conditions: PC-3, 48 h.
In another assay the test system is OVCAR-3. As to the kind of experiment: Antiproliferative activity against human OVCAR3 cells assessed as growth inhibition after 48 hrs by sulforhodamine B assay. Conditions: OVCAR-3, 48 h.
Another assay concerns HT-29. Put plainly: Antiproliferative activity against human HT-29 cells assessed as growth inhibition after 48 hrs by sulforhodamine B assay. As to conditions: HT-29, 48 h.
The next assay has as its system K562. As to the kind of experiment: Antiproliferative activity against human K562 cells assessed as growth inhibition after 48 hrs by sulforhodamine B assay. As to conditions: K562, 48 h.
In another assay the test system is U-251. As to the kind of experiment: Antiproliferative activity against human U251 cells assessed as growth inhibition after 48 hrs by sulforhodamine B assay. As to conditions: U-251, 48 h.

Take `COC(=O)c1cc2c([nH]c3ccccc32)c(-c2ccccc2)n1`: the GI50 in assay [1] was 5.45 µM; in the assay with MCF7, more than 100 µM; in the assay with NCI/ADR-RES, more than 100 µM; in the assay on 786-0, more than 100 µM; with NCI-H460, more than 100 µM; with PC-3, more than 100 µM. The 50% growth inhibitory concentration (GI50) in the assay with OVCAR-3, in the assay on HT-29 and in the assay with K562 was more than 100 µM throughout.

Consider `COC(=O)c1cc2c([nH]c3ccccc32)c(-c2ccccc2Cl)n1`, for which the GI50 came to 5.76 µM in assay [1]; 36.4 µM in the assay on MCF7; 27.6 µM in the assay on NCI/ADR-RES; 42.4 µM in the assay with 786-0; 26.8 µM in the assay with NCI-H460; 22.3 µM in the assay with PC-3. Also, the GI50 in the assay on OVCAR-3 turned out to be 21.6 µM; in the assay with HT-29 it was 25.3 µM; in the assay on K562, 13.5 µM.

For the compound `CCOC(=O)c1cc2c([nH]c3ccc(OC)cc32)c(-c2ccc(N(C)C)cc2)n1`, the 50% growth inhibitory concentration (GI50) in the assay with U-251 is 0.95 µM; in [1], 0.28 µM; in the assay on MCF7, more than 100 µM; in the assay on NCI/ADR-RES it was 4.29 µM; in the assay on 786-0, 1.4 µM; with NCI-H460, 12.7 µM. Besides, the GI50 was 7.74 µM in the assay on PC-3, more than 100 µM in the assay with OVCAR-3, more than 100 µM in the assay on HT-29 and more than 100 µM in the assay on K562.

Take `CCOC(=O)c1cc2c([nH]c3ccc(OC)cc32)c(-c2ccc(O)cc2)n1`: the GI50 with U-251 is 7.26 µM; in assay [1], more than 100 µM; in the assay with MCF7, 6.57 µM; in the assay with NCI/ADR-RES, 6.54 µM; with 786-0, 7.51 µM; in the assay with NCI-H460 it was 6.95 µM. For the same compound, the GI50 with PC-3 came out at 3.28 µM; with OVCAR-3 it was 0.66 µM; in the assay with HT-29, 7.74 µM; in the assay on K562, 4.36 µM.

For `COc1ccc(-c2nc(-c3nnnn3Cc3ccccc3)cc3c2[nH]c2ccccc23)cc1`, the GI50 amounted to 3.82 µM in the assay with U-251; 88.1 µM in assay [1]; 1.32 µM with MCF7; 2.7 µM in the assay with NCI/ADR-RES; 2.17 µM in the assay on 786-0; 1.59 µM with NCI-H460. The GI50 in the assay on PC-3 came to 5.73 µM; in the assay with OVCAR-3 it was 1.62 µM; in the assay on HT-29, 18.3 µM; in the assay with K562 it was 7.14 µM.

Consider `COC(=O)c1cc2c([nH]c3ccccc32)c(-c2ccc(OC)cc2)n1`, for which the 50% growth inhibitory concentration (GI50) worked out at 2.61 µM in [1]; 52.7 µM in the assay with MCF7; 1.11 µM in the assay with NCI/ADR-RES; 32.7 µM with 786-0; 0.38 µM with NCI-H460; 10.2 µM in the assay with PC-3. Moreover, the GI50 worked out at 39.4 µM with OVCAR-3, 24.8 µM with HT-29 and 0.04 µM in the assay on K562.

Take `CCOC(=O)c1cc2c([nH]c3ccc(OC)cc32)c(-c2ccccc2)n1`: the GI50 is more than 100 µM with U-251; more than 100 µM in [1]; 79.6 µM in the assay with MCF7; more than 100 µM in the assay on NCI/ADR-RES; more than 100 µM in the assay on 786-0; more than 100 µM in the assay on NCI-H460. The GI50 with PC-3, in the assay on OVCAR-3, with HT-29 and in the assay on K562 was more than 100 µM in each case.

Take `CCOC(=O)c1cc2c([nH]c3ccc(C)cc32)c(-c2ccc(OC)cc2)n1`: the GI50 came to 7.07 µM in the assay with U-251; 23.3 µM in [1]; 32.2 µM in the assay on MCF7; 41.6 µM in the assay with NCI/ADR-RES; 4.27 µM with 786-0; 11.6 µM with NCI-H460. In addition, the GI50 in the assay with PC-3 was more than 100 µM; in the assay with OVCAR-3, 0.61 µM; in the assay with HT-29 it was 80.1 µM; with K562, 25.1 µM.

With `CCOC(=O)c1cc2c([nH]c3ccc(OC)cc32)c(-c2cccc([N+](=O)[O-])c2)n1`, the GI50 in the assay with U-251 was more than 100 µM; in [1], 19.7 µM; in the assay with MCF7, more than 100 µM; in the assay on NCI/ADR-RES, more than 100 µM; in the assay with 786-0 it was more than 100 µM; with NCI-H460, more than 100 µM. In addition, the GI50 in the assay on PC-3, with OVCAR-3, in the assay with HT-29 and in the assay with K562 was more than 100 µM throughout.

As to `CCOC(=O)c1cc2c([nH]c3ccc(OC)cc32)c(-c2ccccc2Cl)n1`, the GI50 was 22.1 µM in the assay on U-251; 7.71 µM in assay [1]; more than 100 µM in the assay on MCF7; more than 100 µM in the assay with NCI/ADR-RES; 12.2 µM in the assay with 786-0; 65.6 µM in the assay on NCI-H460. In addition, the GI50 in the assay with PC-3, in the assay on OVCAR-3, with HT-29 and in the assay with K562 was more than 100 µM throughout.

Consider `CCOC(=O)c1cc2c([nH]c3ccc(OC)cc32)c(-c2ccc(OC)cc2)n1`, for which the GI50 with U-251 is 70.8 µM; in assay [1], more than 100 µM; with MCF7, more than 100 µM; in the assay with NCI/ADR-RES, more than 100 µM; in the assay on 786-0 it was 20.9 µM; in the assay on NCI-H460, 74.8 µM. Also, the GI50 with PC-3, in the assay with OVCAR-3, in the assay with HT-29 and with K562 was more than 100 µM in each case.

Consider `Fc1ccc(-c2nc(-c3nnn[nH]3)cc3c2[nH]c2ccccc23)cc1`, for which the GI50 with U-251 was determined as 8.17 µM; in [1] it was 63.3 µM; in the assay on MCF7, 10.1 µM; with NCI/ADR-RES, 36.6 µM; in the assay with 786-0 it was 64.5 µM; in the assay on NCI-H460, 14.8 µM. Further, the GI50 was determined as 71.8 µM in the assay on PC-3, 0.27 µM in the assay on OVCAR-3, 25.6 µM in the assay on HT-29 and 10.7 µM in the assay on K562.

Take `c1ccc(Cn2nnnc2-c2cc3c([nH]c4ccccc43)c(-c3ccccc3)n2)cc1`: the GI50 with U-251 came out at 63.5 µM; in assay [1] it was 37 µM; with MCF7, 4.4 µM; with NCI/ADR-RES it was 71 µM; in the assay on 786-0, 70.6 µM; in the assay with NCI-H460, 31.9 µM. In addition, the GI50 in the assay with PC-3 is more than 100 µM; in the assay with OVCAR-3, more than 100 µM; with HT-29, more than 100 µM; in the assay with K562, 27.4 µM.

Turning to `Fc1ccc(-c2nc(-c3nnnn3Cc3ccccc3)cc3c2[nH]c2ccccc23)cc1`, the GI50 with U-251 is 1.38 µM; in assay [1] it was more than 100 µM; in the assay with MCF7, 1.04 µM; with NCI/ADR-RES, 2.07 µM; in the assay on 786-0, 0.69 µM; with NCI-H460 it was 20.2 µM. Moreover, the GI50 in the assay with PC-3 was found to be 6.11 µM; in the assay on OVCAR-3 it was 0.57 µM; in the assay with HT-29 it was 6.51 µM; in the assay with K562, 0.69 µM.

Consider `COC(=O)c1cc2c([nH]c3ccccc32)c(-c2cccc([N+](=O)[O-])c2)n1`, for which the GI50 is 7.02 µM in assay [1]; more than 100 µM in the assay with MCF7; more than 100 µM with NCI/ADR-RES; 31.7 µM in the assay on 786-0; more than 100 µM in the assay with NCI-H460; more than 100 µM in the assay with PC-3. Besides, the GI50 is more than 100 µM with OVCAR-3, more than 100 µM in the assay with HT-29 and 3.05 µM in the assay on K562.

As to `COC(=O)c1cc2c([nH]c3ccccc32)c(-c2ccc(N(C)C)cc2)n1`, the GI50 in assay [1] was determined as 3.61 µM; in the assay on MCF7, 36.8 µM; in the assay on NCI/ADR-RES it was 11.6 µM; in the assay with 786-0, 20.4 µM; with NCI-H460, 15.3 µM; with PC-3 it was 9.56 µM. Also, the 50% growth inhibitory concentration (GI50) in the assay on OVCAR-3 was found to be 28.4 µM; in the assay with HT-29, 34 µM; in the assay on K562, 21.8 µM.

`COC(=O)c1cc2c([nH]c3ccccc32)c(-c2ccc(O)cc2)n1`: the GI50 in [1] amounted to 12 µM; with MCF7 it was 27.5 µM; in the assay with NCI/ADR-RES it was 25.7 µM; in the assay on 786-0 it was 29.5 µM; in the assay with NCI-H460 it was 28.5 µM; in the assay with PC-3, 20.7 µM. For the same compound, the GI50 is 21.1 µM with OVCAR-3, 25.1 µM in the assay with HT-29 and more than 100 µM in the assay on K562.

`CCOC(=O)c1cc2c([nH]c3ccc(C)cc32)c(-c2ccccc2)n1`: the GI50 amounted to 7.44 µM in the assay on U-251; 28.2 µM in assay [1]; 5.08 µM with MCF7; 2.66 µM in the assay with NCI/ADR-RES; 10.8 µM in the assay on 786-0; 6.96 µM with NCI-H460. The GI50 in the assay on PC-3 was determined as 20.6 µM; in the assay with OVCAR-3, 0.6 µM; in the assay with HT-29 it was 7.14 µM; with K562 it was 1.24 µM.

`COc1cccc2c1C(=O)c1c(O)c3c(c(O)c1C2=O)C[C@@](O)(C(=O)CO)C[C@@H]3O[C@H]1C[C@H](N)[C@H](O)[C@H](C)O1` [DOXORUBICIN]: the GI50 in the assay on U-251 was determined as 0.21 µM; in assay [1] it was 0.047 µM; in the assay on MCF7, 0.073 µM; with NCI/ADR-RES, 1.44 µM; with 786-0, 0.15 µM; in the assay with NCI-H460, 0.37 µM. For the same compound, the GI50 in the assay with PC-3 was found to be 0.74 µM; with OVCAR-3 it was 0.0087 µM; in the assay on HT-29 it was 2.58 µM; in the assay with K562, 1.11 µM.

These data come from ChEMBL document CHEMBL4351004, “New 3-tetrazolyl-β-carbolines and β-carboline-3-carboxylates with anti-cancer activity” (2019).
